Test system: GM1 production in Jurkat cells
Experiment: cells
Format: cell-based
Conditions: Homo sapiens, Jurkat, 72 h

Compound	IC50
CCc1ccc(-c2ccc3c(c2)CC(C)(C)C3NC(=O)O[C@@H]2CN3CCC2CC3)cc1 (stereo partly drawn) [Example 147, (S)-quinuclidin-3-yl (5-(4-ethylphenyl)-2,2-dimethyl-2,3-dihydro-1H-inden-1-yl)carbamate]	14 nM
COc1ccc(-c2ccc3c(c2)CC(C)(C)C3NC(=O)O[C@@H]2CN3CCC2CC3)c(OC)c1 (stereo partly drawn) [Example 166, (S)-quinuclidin-3-yl (5-(2,4-dimethoxyphenyl)-2,2-dimethyl-2,3-dihydro-1H-inden-1-yl)carbamate]	26.3 nM
CCCOc1ccc(F)cc1-c1ccc2c(c1)CC(C)(C)C2NC(=O)O[C@@H]1CN2CCC1CC2 (stereo partly drawn) [Example 213, (S)-quinuclidin-3-yl (5-(5-fluoro-2-propoxyphenyl)-2,2-dimethyl-2,3-dihydro-1H-inden-1-yl)carbamate]	39.8 nM
COc1ccc(F)c(-c2ccc3c(c2)CC(C)(C)C3NC(=O)O[C@@H]2CN3CCC2CC3)c1 (stereo partly drawn) [Example 230, (S)-quinuclidin-3-yl (5-(2-fluoro-5-methoxyphenyl)-2,2-dimethyl-2,3-dihydro-1H-inden-1-yl)carbamate]	30.8 nM
COc1cc2c(cc1-c1cccc(CC(C)C)c1)CC(C)(C)C2NC(=O)O[C@@H]1CN2CCC1CC2 (stereo partly drawn) [Example 335, (S)-quinuclidin-3-yl (5-(3-isobutylphenyl)-6-methoxy-2,2-dimethyl-2,3-dihydro-1H-inden-1-yl)carbamate]	50.4 nM
O=C(NC1CCc2ccc(-c3ccc(Cl)cc3)cc21)O[C@@H]1CN2CCC1CC2 (stereo partly drawn) [Example 26, (S)-quinuclidin-3-yl (6-(4-chlorophenyl)-2,3-dihydro-1H-inden-1-yl)carbamate]	67.2 nM
O=C(NC1CCc2ccc(-c3ccc(F)cc3)cc21)O[C@@H]1CN2CCC1CC2 (stereo partly drawn) [Example 25, (S)-quinuclidin-3-yl (6-(4-fluorophenyl)-2,3-dihydro-1H-inden-1-yl)carbamate]	106 nM
CCOc1ccc(-c2ccc3c(c2)CC(C)(C)C3NC(=O)O[C@@H]2CN3CCC2CC3)cc1Cl (stereo partly drawn) [Example 204, (S)-quinuclidin-3-yl (5-(3-chloro-4-ethoxyphenyl)-2,2-dimethyl-2,3-dihydro-1H-inden-1-yl)carbamate]	57.2 nM
CCCOc1ccc(-c2ccc3c(c2)CC(C)(C)C3NC(=O)O[C@@H]2CN3CCC2CC3)cc1F (stereo partly drawn) [Example 216, (S)-quinuclidin-3-yl (5-(3-fluoro-4-propoxyphenyl)-2,2-dimethyl-2,3-dihydro-1H-inden-1-yl)carbamate]	28.7 nM
CC1(C)Cc2cc(-c3cccc(F)c3)c(F)cc2C1NC(=O)O[C@@H]1CN2CCC1CC2 (stereo partly drawn) [Example 370, (S)-quinuclidin-3-yl (6-fluoro-5-(3-fluorophenyl)-2,2-dimethyl-2,3-dihydro-1H-inden-1-yl)carbamate]	39.3 nM
O=C(NC1CCc2cc(-c3cc(Cl)ccc3Cl)ccc21)O[C@@H]1CN2CCC1CC2 (stereo partly drawn) [Example 24, (S)-quinuclidin-3-yl (5-(2,5-dichlorophenyl)-2,3-dihydro-1H-inden-1-yl)carbamate]	17.4 nM
CCCCc1ccc(-c2cc3c(cc2OC)C(NC(=O)O[C@@H]2CN4CCC2CC4)C(C)(C)C3)cc1 (stereo partly drawn) [Example 328, (S)-quinuclidin-3-yl (5-(4-butylphenyl)-6-methoxy-2,2-dimethyl-2,3-dihydro-1H-inden-1-yl)carbamate]	11.4 nM
COc1ccc(C)cc1-c1ccc2c(c1)CC(C)(C)C2NC(=O)O[C@@H]1CN2CCC1CC2 (stereo partly drawn) [Example 200, (S)-quinuclidin-3-yl (5-(2-methoxy-5-methylphenyl)-2,2-dimethyl-2,3-dihydro-1H-inden-1-yl)carbamate]	3.7 nM
CCOc1c(C)cc(-c2cc3c(cc2F)C(NC(=O)O[C@@H]2CN4CCC2CC4)C(C)(C)C3)cc1C (stereo partly drawn) [Example 367, (S)-quinuclidin-3-yl (5-(4-ethoxy-3,5-dimethylphenyl)-6-fluoro-2,2-dimethyl-2,3-dihydro-1H-inden-1-yl)carbamate]	68.2 nM
COc1ccc(-c2ccc3c(c2)CC(C)(C)C3NC(=O)O[C@@H]2CN3CCC2CC3)c(Cl)c1Cl (stereo partly drawn) [Example 126, (S)-quinuclidin-3-yl (5-(2,3-dichloro-4-methoxyphenyl)-2,2-dimethyl-2,3-dihydro-1H-inden-1-yl)carbamate]	50.5 nM
COCCOc1ccc(-c2ccc3c(c2)CC(C)(C)C3NC(=O)O[C@@H]2CN3CCC2CC3)cc1 (stereo partly drawn) [Example 97, (S)-quinuclidin-3-yl (5-(4-(2-methoxyethoxy)phenyl)-2,2-dimethyl-2,3-dihydro-1H-inden-1-yl)carbamate]	9.3 nM
CC(C)Oc1ccc(-c2cc3c(cc2F)C(NC(=O)O[C@@H]2CN4CCC2CC4)C(C)(C)C3)cc1 (stereo partly drawn) [Example 358, (S)-quinuclidin-3-yl (6-fluoro-5-(4-isopropoxyphenyl)-2,2-dimethyl-2,3-dihydro-1H-inden-1-yl)carbamate]	7.7 nM
CC1(C)Cc2cc(-c3ccc4c(c3)OC(F)(F)O4)ccc2C1NC(=O)O[C@@H]1CN2CCC1CC2 (stereo partly drawn) [Example 111, (S)-quinuclidin-3-yl (5-(2,2-difluorobenzo[d][1,3]dioxol-5-yl)-2,2-dimethyl-2,3-dihydro-1H-inden-1-yl)carbamate]	32 nM
CC1(C)Cc2cc(-c3ccnc(C(F)(F)F)c3)ccc2C1NC(=O)O[C@@H]1CN2CCC1CC2 (stereo partly drawn) [Example 118, (S)-quinuclidin-3-yl (2,2-dimethyl-5-(2-(trifluoromethyl)pyridin-4-yl)-2,3-dihydro-1H-inden-1-yl)carbamate]	38.4 nM
CC1(C)Cc2cc(-c3cc(Cl)ncc3Cl)ccc2C1NC(=O)O[C@@H]1CN2CCC1CC2 (stereo partly drawn) [Example 119, (S)-quinuclidin-3-yl (5-(2,5-dichloropyridin-4-yl)-2,2-dimethyl-2,3-dihydro-1H-inden-1-yl)carbamate]	38.3 nM
CC1(C)Cc2cc(-c3ccc(OCC(F)F)cc3)ccc2C1NC(=O)O[C@@H]1CN2CCC1CC2 (stereo partly drawn) [Example 150, (S)-quinuclidin-3-yl (5-(4-(2,2-difluoroethoxy)phenyl)-2,2-dimethyl-2,3-dihydro-1H-inden-1-yl)carbamate]	6.8 nM
COCOc1ccc(-c2ccc3c(c2)CC2(CC2)C3NC(=O)O[C@@H]2CN3CCC2CC3)cc1 (stereo partly drawn) [Example 397, (S)-quinuclidin-3-yl (5′-(4-(methoxymethoxy)phenyl)-1′,3′-dihydrospiro[cyclopropane-1,2′-inden]-1′-yl)carbamate]	17.4 nM
CCc1ccc(-c2cc3c(cc2F)C(NC(=O)O[C@@H]2CN4CCC2CC4)C(C)(C)C3)cc1 (stereo partly drawn) [Example 349, (S)-quinuclidin-3-yl (5-(4-ethylphenyl)-6-fluoro-2,2-dimethyl-2,3-dihydro-1H-inden-1-yl)carbamate]	10.3 nM
COc1ccc(OC)c(-c2cc3c(cc2F)C(NC(=O)O[C@@H]2CN4CCC2CC4)C(C)(C)C3)c1 (stereo partly drawn) [Example 382, (S)-quinuclidin-3-yl (5-(2,5-dimethoxyphenyl)-6-fluoro-2,2-dimethyl-2,3-dihydro-1H-inden-1-yl)carbamate]	31.3 nM
CCOc1ccc(C)cc1-c1ccc2c(c1)CC(C)(C)C2NC(=O)O[C@@H]1CN2CCC1CC2 (stereo partly drawn) [Example 198, (S)-quinuclidin-3-yl (5-(2-ethoxy-5-methylphenyl)-2,2-dimethyl-2,3-dihydro-1H-inden-1-yl)carbamate]	11.7 nM
CC1(C)Oc2ccc(-c3cccc(F)c3)cc2C1NC(=O)O[C@@H]1CN2CCC1CC2 (stereo partly drawn) [Example 406, (S)-quinuclidin-3-yl (5-(3-fluorophenyl)-2,2-dimethyl-2,3-dihydrobenzofuran-3-yl)carbamate]	120 nM
